Laboratory results from US7442788B2, “Antisense molecules and method of controlling expression of gene function by using the same” (Japan Science and Technology Corporation, priority 2001, dated 2008).
Where “and” joins values, the source holds several entries; their conditions need not be identical. Equal entries are not always repeated. One block for each compound: values may come before it.

Key:
[1] = Circular dichroism (CD) spectrum, molar ellipticity at about 270 nm as measure of base moiety orientation (syn/anti); assay type: physicochemical; conditions: for Δ[θ]ext: phosphate buffer minus borate buffer; for change of [θ]ext / CD peak from phosphate buffer to borate buffer (borax): phosphate vs borate buffer
Description: The molar ellipticity ([θ]max) at about 270 nm in the CD spectrum of a nucleoside reflects two factors, namely the orientation of the base moiety to the furanose moiety and the puckering of the furanose ring. It is known that the molar ellipticity at about 270 nm markedly decreases in the syn orientation as compared with the anti orientation. […]
[…] […] The rate of syn orientation induction in Urd in the presence of boric acid was smaller as compared with IPU but this can be explained by the presence of an equilibrium between the borate ester formation and the dissociation.
Specifically, CD spectra were measured with Urd, 5′-aminouridine (5′-NH2-Urd) and 5′-aminoisopropylideneuridine (5′-NH2-IPU) in phosphate buffer (pH 7.2) and with 5′-NH2-Urd in borate buffer (pH 7.2) for the investigation of uracil moiety orientations. […] This is presumably due to a syn orientation-inducing effect of hydrogen bond formation between the oxygen atom of the 2-position carbonyl group of the nucleoside base moiety and the 5′-position amino hydrogen atom. Under the measurement conditions in this case, the 5′-position amino group of 5′-NH2-Urd occurs in an ammonium ion state and presumably serves as a good hydrogen bond donor. […] This is probably due to two synergistic effects, namely the fixation of the sugar moiety to the 2′,3′-planar structure and the hydrogen bond formation between the 5′-position amino group and the 2-position carbonyl group of the base moiety.
Then, on the supposition that Urd in phosphate buffer ([θ]max value=9700) is in an ideal 100% anti orientation and 5′-NH2-IPU in phosphate buffer ([θ]max value=1200) in an ideal 100% syn orientation, the orientations of the base moiety (uracil) of uridine and uridine derivatives (5′-NH2-Urd, IPU, 5′-NH2-IPU) were evaluated under different conditions (in phosphate buffer, in borate buffer).

[2] = Association constant with boric acid from CD peak decrement against borax/boric acid concentration, curve fitting; assay type: binding
Experimental: However, there is no direct evidence as yet that this change in base moiety orientation is induced by borate ester bond formation. Therefore, the dependency of the change in base moiety orientation on the concentration of borax (Na2B4O7) was investigated at pH 7.2. […] The association constant of 5′-NH2-Urd with boric acid was determined by plotting the decrement in peak height against the boric acid (borax) concentration, followed by curve fitting. Supposing that borax give 4 equivalents of boric acid in aqueous solution, the association constant of 5′-NH2-Urd with boric acid was calculated at 75 M^−1.
In addition to the above-mentioned borax, boric acid (B(OH)3) was also used and the addition test was carried out in the same manner. In this case, too, decreases in peak height were observed, and the association constant was calculated at 49 M^−1. In addition, changes in orientation due to ester formation were also observed with methylboric acid and phenylboric acid.
As is evident from FIG. 8a, almost the same change as that attained by addition of 50 mM of borax at pH 7.2 was obtained at pH 8.8 only by addition of 2 mM of borax. […] The association constant 5′-NH2-Urd with boric acid was calculated at 600 M^−1, which is greater by one order than at pH 7.2.

[3] = system: polyadenylic acid (poly(A)); assay: Complex formation by continuous absorbance (260 nm) plotting, control by borax and sugars; assay type: binding
Experimental: Therefore, poly(Nγ-(5′-deoxy-5′-uridyl)-L-glutamine) PRNA1 (Production Example 1) was examined for its complex forming ability using polyadenylic acid (poly(A)) as its complementary strand. […] Then, borax was added to this PRNA1- and poly(A)-containing phosphate buffer solution, whereupon the absorbance (260 nm) increased in a concentration-dependent manner until a certain concentration, as shown by the plots ▪ in FIG. 20(a). Upon addition of borax in an amount about 3 times the amount of the PRNA1, the absorbance (260 nm) increased to be the original absorbance prior to addition of poly(A). […] Furthermore, this borate ester was in equilibrium with its anionic form even at pH 7.2.

[4] = system: 5′-d(AAAAACCA)-3′; assay: Melting temperature (Tm) of PRNA (octamer)-DNA hybrid by UV absorbance change; conditions: binding target 5′d(AAAAACCA)3′
Experimental: (§1) Specifically, the PRNA (octamer NH2-UIIUUUUU-Lys-OH) was mixed with each of oligonucleotide octamers specified in Table 6, the melting temperature (Tm) was determined by measuring the resulting change in absorbance on UV spectra, and the ability of the PRNA (octamer) to hybridize with the nucleic acid (complex forming ability) was evaluated based on the resultant melting temperature. Furthermore, the effects of a borate on the PRNA (octamer)-DNA hybrid formation and the stability thereof were investigated using the PRNA (octamer) and 5′-d(AAAAACCA)-3′, a complementary compound as its binding target oligonucleotide, and measuring the melting temperatures with and without addition of borax (20 mM) to the phosphate buffer and comparing them. A control experiment was carried out in the same manner using 5′-d(ACCAAAAA)-3′ as the binding target oligonucleotide in lieu of 5′-d(AAAAACCA)-3′.

[5] = system: 5′-d(ACCAAAAA)-3′; assay: Melting temperature (Tm) of PRNA (octamer)-DNA hybrid by UV absorbance change, control experiment; assay type: binding; conditions: for Tm: binding target 5′d(ACCAAAAA)3′
Experimental: as §1

[6] = phosphate buffer (pH 7.2), no borax, Urd = 100% anti, 5′-NH2-IPU = 100% syn supposed

Compound: 5′-aminoisopropylideneuridine [5′-NH2-IPU, reference compound]
[θ]max ([1]; phosphate buffer (pH 7.2)): 1200 deg cm^2dmol^−1
proportion of syn orientation of the base moiety [1, 6]: 100 % syn

Compound: NC[C@H]1O[C@@H](n2ccc(=O)[nH]c2=O)[C@H](O)[C@@H]1O [5′-NH2-Urd, 5′-amino-5′-deoxyuridine]
association constant with boric acid ([2]; boric acid (B(OH)3) added instead of borax): 49 M⁻¹
association constant with boric acid ([2]; pH 7.2, borax added, borax supposed to give 4 equivalents of boric acid): 75 M⁻¹
association constant with boric acid ([2]; pH 8.8, borax added): 600 M⁻¹
proportion of syn orientation of the base moiety ([1]; 8 mM borax added, phosphate buffer pH 7.2): 83 % syn
proportion of syn orientation of the base moiety ([1]; 8 mM borax, pH adjusted from 7.2 to 6.2): 58 % syn
Molar ellipticity ([θ]ext) at about 270 nm ([1]; borate buffer (pH 7.2)): 1600 deg·cm2/dmol
[θ]max ([1]; borate buffer (pH 7.2)): 1600 deg cm^2dmol^−1
proportion of syn orientation of the base moiety ([1]; borate buffer (pH 7.2)): 95 % syn
change of CD peak at about 270 nm / orientation upon addition of borax ([1]; pH 6.0): almost no peak decreases were observed
change of CD peak at about 270 nm / orientation upon addition of borax ([1]; pH 8.8): syn orientation is induced more effectively at pH 8.8
Molar ellipticity ([θ]ext) at about 270 nm ([1]; phosphate buffer (pH 7.2)): 5100 deg·cm2/dmol
[θ]max ([1]; phosphate buffer (pH 7.2)): 5100 deg cm^2dmol^−1
proportion of syn orientation of the base moiety [1, 6]: 55 % syn and 54 % syn
Δ[θ]ext [1]: 3500

Compound: Poly(N^γ-(5′-deoxy-5′-uridyl)-L-glutamine) [PRNA1]
amount of xylose giving perfect 1:1 complex formation ([3]; borax 6 times the amount of PRNA1): about 20 times that of the PRNA1
absorbance at 260 nm after addition of D(+)-xylose ([3]; borax 6 times the amount of PRNA1, decrease from 1.03): 0.88
effect of D(+)-glucose in lieu of D(+)-xylose ([3]; borax-containing phosphate buffer with poly(A)): the complex is formed
absorbance at 260 nm after addition of poly(A) ([3]; borax-free phosphate buffer pH 7.2, decrease from 1): 0.88
amount of borax restoring the original absorbance (complete dissociation of complex) ([3]; phosphate buffer with PRNA1 and poly(A)): about 3 times the amount of the PRNA1

Compound: NH2-isoGln(5′U)-isoGln(5′I)-isoGln(5′I)-isoGln(5′U)-isoGln(5′U)-isoGln(5′U)-isoGln(5′U)-isoGln(5′U)-Lys-OH [NH2UIIUUUUU-Lys-OH]
Tm ([4]; 20 mM borax): <0 °C
Tm ([4]; 20 mM borax, listed as PRNA (octamer)): lower than 0 °C
Tm ([4]; no additive, 1/30 M phosphate buffer): 7.8 °C
change of [θ]ext / CD peak from phosphate buffer to borate buffer (borax) [1]: marked decrease
Tm ([5]; 20 mM borax): <0 °C
Tm ([5]; no additive): 6.2 °C
lowering of Tm with 5′-d(ACCAAAAA)-3′ in lieu of 5′-d(AAAAACCA)-3′ ([5]; no additive): 1.6 °C

Compound: Boc-isoGln(5′U)-isoGln(5′I)-isoGln(5′U)-OH [U-I-U]
change of [θ]ext / CD peak from phosphate buffer to borate buffer (borax) [1]: [θ]ext decreases

More lines, main results first:

Molar ellipticity ([θ]ext) at about 270 nm ([1]; borate buffer (pH 7.2)): 1400 deg·cm2/dmol
Molar ellipticity ([θ]ext) at about 270 nm ([1]; phosphate buffer (pH 7.2)): 4800 deg·cm2/dmol
Δ[θ]ext [1]: 3400
Compound: Boc-isoGln(5′I)-isoGln(5′U)-OH [I-U]

[θ]max ([1]; borate buffer (pH 7.2)): 4900 deg cm^2dmol^−1
[θ]max ([1]; phosphate buffer (pH 7.2)): 8400 deg cm^2dmol^−1
Compound: NC[C@H]1O[C@@H](n2ccc(N)nc2=O)[C@H](O)[C@@H]1O [5′-NH2-Cyd, 5′-amino-5′-deoxycytidine]

[θ]max ([1]; borate buffer (pH 7.2)): 12200 deg cm^2dmol^−1
[θ]max ([1]; phosphate buffer (pH 7.2)): 14200 deg cm^2dmol^−1
Compound: Nc1ccn([C@@H]2O[C@H](CO)[C@@H](O)[C@H]2O)c(=O)n1 [Cytidine (Cyd), Cytidine, reference compound]

proportion of syn orientation of the base moiety ([1]; 5.5 mM borax added, phosphate buffer pH 7.2): 76 % syn
proportion of syn orientation of the base moiety ([1]; 5.5 mM borax, pH adjusted from 7.2 to 6.2): 41 % syn
proportion of syn orientation of the base moiety ([1]; borate buffer (pH 7.2)): 64 % syn
proportion of syn orientation of the base moiety [1, 6]: 39 % syn
Compound: Boc-AEG(5′U)-OH
change of CD peak at about 270 nm / orientation upon addition of borax ([1]; pH 6.0): almost no decrease in the relevant peak was observed
change of CD peak at about 270 nm / orientation upon addition of borax ([1]; pH 8.8): very efficient increase in syn orientation proportion
